Biological target: T1, human CXCR2 (Homo sapiens, UniProt P25025)
T1 construct: expressed in transfected cells; host or cells: BAF/3 cells
T1 sequence (P25025 1-360): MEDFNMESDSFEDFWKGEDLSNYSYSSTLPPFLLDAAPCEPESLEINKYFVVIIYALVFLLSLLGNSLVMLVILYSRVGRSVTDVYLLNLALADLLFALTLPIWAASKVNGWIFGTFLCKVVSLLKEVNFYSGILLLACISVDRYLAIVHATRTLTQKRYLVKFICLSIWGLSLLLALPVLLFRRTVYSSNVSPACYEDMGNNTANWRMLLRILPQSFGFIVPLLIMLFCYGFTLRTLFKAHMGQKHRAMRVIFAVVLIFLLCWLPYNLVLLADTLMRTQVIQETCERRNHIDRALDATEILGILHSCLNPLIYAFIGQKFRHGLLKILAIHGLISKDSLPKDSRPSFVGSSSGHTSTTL
Assay: Chemotaxis assay 1, transfected cell line: inhibition of CXCL1 induced chemotaxis of BAF/3 cells expressing human CXCR2
Format: cell-based
Conditions: CXCL1 (3 nM) induced chemotaxis of BAF/3 cells expressing human CXCR2, 4 hours, Cell Titer Glo readout
Procedure: Chemotaxis Assay 1, Transfected Cell Line:
This assay measures the inhibition of CXCL1 induced chemotaxis of BAF/3 cells expressing human CXCR2. For each assay point, 100 μL of a 3×10^6/mL cell suspension are incubated with 1 μL of test compound diluted in DMSO. The bottom wells of a chemotaxis plate (5 μm pore size, Neuroprobe) is filled with 305 μL of chemotaxis buffer (RPMI 1640 medium (phenol red free), containing 2% fetal calf serum) and 3 nM CXCL1. The 5 μm pore membrane is applied onto the chemotaxis plate and 80 μL of the cell suspension is cautiously pipetted onto the membrane. The lid is put on the chemotaxis plate and the plate is incubated for 4 hours in an incubator (37° C., 5% CO2). For quantification of migrated cells, the cell suspension and the lid are removed and 100 μL from the bottom chamber are transferred to an Opti plate 96 (Perkin Elmer). 100 μL of substrate solution (provided by Cell Titer Glo kit, Promega) are added. This method uses the measurement of ATP present in metabolically active cells. After 10 min incubation at room temperature the plate is measured at Luminoscan for quantification of ATP-dependent generation of oxyluciferin. IC50s of the tested compound are calculated by non-linear regression and using a sigmoidal dose-response curve as fitting algorithm (provided by GraphPadPrism). Determination of a bottom value is performed by quantification of migration of buffer treated cells, migrating towards buffer only. Determination of a top value is performed by quantification of migration of buffer treated cells, migrating towards CXCL1.

| IC50 | Structure (SMILES) |
| --- | --- |
| 149 nM | CC[C@@H](Nc1c(Nc2ccc(Cl)c(S(=O)(=O)N3CCC4(CCCC4)CC3)c2O)c(=O)c1=O)c1ccccc1 [Example 18] |
| 14.4 nM | CCC(Nc1c(Nc2ccc(Cl)c(S(=O)(=O)N3CCN4C(=O)CCC4C3)c2O)c(=O)c1=O)c1ccc(C)o1 (centres unmarked) [Example 12] |
| 22.6 nM | CC[C@@H](Nc1c(Nc2ccc(Cl)c(S(=O)(=O)N3CCC4(CCNC4=O)CC3)c2O)c(=O)c1=O)c1ccccc1 [Example 13] |
| 6.8 nM | CC[C@@H](Nc1c(Nc2ccc(Cl)c(S(=O)(=O)N3CCN4CCOCC4C3)c2O)c(=O)c1=O)c1ccc(C)o1 (some centres unmarked) [Example 5] |
| 11.6 nM | CC[C@@H](Nc1c(Nc2ccc(Cl)c(S(=O)(=O)N3CCC4(CCCC4)CC3)c2O)c(=O)c1=O)c1ccc(C)o1 [Example 19] |
| 54.4 nM | CC[C@@H](Nc1c(Nc2ccc(Cl)c(S(=O)(=O)N3CCC4(CC3)COCCN4)c2O)c(=O)c1=O)c1ccc(C(F)(F)F)o1 [Example 17] |
| 56.6 nM | CC[C@@H](Nc1c(Nc2ccc(Cl)c(S(=O)(=O)N3CCN4CCOC[C@H]4C3)c2O)c(=O)c1=O)c1ccc(C(F)(F)F)o1 [Example 8] |
| 0.9 nM | CC[C@@H](Nc1c(Nc2ccc(Cl)c(S(=O)(=O)N3CCN4CCCC4C3)c2O)c(=O)c1=O)c1ccc(C)o1 (some centres unmarked) [Example 2] |
| 5.1 nM | O=c1c(Nc2ccc(Cl)c(S(=O)(=O)N3CCN4CCCC4C3)c2O)c(Nc2cccc(F)c2Cl)c1=O (centres unmarked) [Example 3] |
| 2.6 nM | CCC(Nc1c(Nc2ccc(Cl)c(S(=O)(=O)N3CCN4C(=O)CCC4C3)c2O)c(=O)c1=O)c1ccccc1 (centres unmarked) [Example 11] |
| 58.6 nM | CC[C@@H](Nc1c(Nc2ccc(Cl)c(S(=O)(=O)N3C[C@H]4NCCO[C@@H]4C3)c2O)c(=O)c1=O)c1ccc(C)o1 [Example 20] |
| 37.8 nM | O=c1c(Nc2ccc(Cl)c(S(=O)(=O)N3CCN4CCOCC4C3)c2O)c(Nc2cccc(F)c2Cl)c1=O (centres unmarked) [Example 6] |
| 0.7 nM | CC[C@@H](Nc1c(Nc2ccc(Cl)c(S(=O)(=O)N3CCN4CCCC4C3)c2O)c(=O)c1=O)c1ccccc1 (some centres unmarked) [Example 1] |
| 0.6 nM | CC[C@@H](Nc1c(Nc2ccc(Cl)c(S(=O)(=O)N3CCN4CCOCC4C3)c2O)c(=O)c1=O)c1ccccc1 (some centres unmarked) [Example 4] |
| 13.4 nM | CC[C@@H](Nc1c(Nc2ccc(Cl)c(S(=O)(=O)N3CCN4CCOC[C@@H]4C3)c2O)c(=O)c1=O)c1ccc(C)o1 [Example 9] |
| 47.1 nM | CC[C@@H](Nc1c(Nc2ccc(Cl)c(S(=O)(=O)N3CCC4(CCNC4=O)CC3)c2O)c(=O)c1=O)c1ccc(C)o1 [Example 14] |
| 4.9 nM | CC[C@@H](Nc1c(Nc2ccc(Cl)c(S(=O)(=O)N3CCN4CCOC[C@H]4C3)c2O)c(=O)c1=O)c1ccc(C)o1 [Example 7] |
| 33.8 nM | CC[C@@H](Nc1c(Nc2ccc(Cl)c(S(=O)(=O)N3CCC4(CC3)COCCN4)c2O)c(=O)c1=O)c1ccccc1 [Example 15] |
| 8.7 nM | CC[C@@H](Nc1c(Nc2ccc(Cl)c(S(=O)(=O)N3CCC4(CC3)COCCN4)c2O)c(=O)c1=O)c1ccc(C)o1 [Example 16] |
| 64.8 nM | CC[C@@H](Nc1c(Nc2ccc(Cl)c(S(=O)(=O)N3CCN4CCOC[C@@H]4C3)c2O)c(=O)c1=O)c1ccc(C(F)(F)F)o1 [Example 10] |
